Biological target: T1, glucocorticoid receptor (GR) (Homo sapiens, UniProt P04150)
T1 sequence (P04150 521-777): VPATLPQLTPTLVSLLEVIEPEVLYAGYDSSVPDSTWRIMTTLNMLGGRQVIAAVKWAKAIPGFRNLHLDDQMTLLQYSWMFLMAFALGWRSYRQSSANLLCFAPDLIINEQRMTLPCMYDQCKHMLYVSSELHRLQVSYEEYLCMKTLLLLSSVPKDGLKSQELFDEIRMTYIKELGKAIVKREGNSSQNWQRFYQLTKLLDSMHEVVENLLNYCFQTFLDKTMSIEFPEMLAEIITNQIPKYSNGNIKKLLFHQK
Experiment: Assay for agonist activity on glucocorticoid receptor (luciferase reporter, HEK293 cells transfected with pBIND-GR plasmid)
Assay type: cell-based
Details: HEK293 cells transfected with pBIND-GR, luciferase signal; read-out: GR agonist EC50
Protocol: Pharmacological Example 1: Assay for Agonist Activity on Glucocorticoid Receptor (GR)
The test compounds were subjected to a 4-fold serial dilution starting from an initial concentration of 10 µ M, generating a 10-point concentration gradient with duplicate wells for each concentration. The blank control consisted of 0.1 % DMSO.
The HEK293 stable cell line […] transfected with glucocorticoid receptor (GR) (ICE Bioscience, Lot No. TYP-20220519) was cultured in Dulbecco's Modified Eagle Medium (DMEM) supplemented with 10% fetal bovine serum (FBS) and 200 µ g/ml Hygromycin B in a cell incubator containing 5% CO2 at 37 °C. The spent medium was aspirated and the cells were washed once with phosphate-buffered saline (PBS). Then, 1 mL of TrypLE™ Express solution was added, and the cells were incubated at 37 °C for approximately 2 min. When the cells detached from the bottom of the cell culture dish, approximately 5 mL of pre-warmed complete medium at 37 °C was added. The cell suspension was gently pipetted with a pipette to dissociate clumped cells. The cell suspension was transferred to a sterile centrifuge tube and centrifuged at 1000 rpm for 5 min to pellet the cells for experiments or subculture.
HEK293 cells were digested and seeded into 6-cm culture dishes. The pBIND-GR plasmid was transfected into the HEK293 cells using a transfection reagent, resulting in HEK293 cells successfully transfected with the pBIND-GR plasmid. The cells were resuspended in phenol red-free DMEM medium containing 5% charcoal-stripped serum, counted, and then seeded into 96-well plates. The test compounds were added, and the plates were then incubated in an incubator. The luminescence signal values were measured using a multimode microplate reader following the instructions of the luciferase assay kit. The EC50 values of each test compound were calculated using the nonlinear fitting formula with GraphPad Prism 8.0 software.

| Structure (SMILES) | EC50 |
| --- | --- |
| C[C@]12C=CC(=O)C=C1CC[C@H]1[C@@H]3C[C@H]4OC(c5ccc(NC6CCOC6=O)cc5)O[C@@]4(C(=O)CO)[C@@]3(C)C[C@H](O)[C@@]12F (stereo partly drawn) [Compound 42, (6aS,6bR,7S,8aS,8bS,11aR,12aS,12bS)-6b-Fluoro-7-hydroxy-8b-(2-hydroxyacetyl)-6a,8a-dimethyl-10-(4-((2-oxotetrahydrofuran-3-yl)amino)phenyl)-1,2,6a,6b,7,8,8a,8b,11a,12,12a,12b-dodecahy dro-4H-naphtho[2',1':4,5]indeno[1,2-d][1,3]dioxol-4-one] | 19.5 nM |
| C[C@]12C=CC(=O)C=C1CC[C@H]1[C@@H]3C[C@H]4OC(c5ccc(CNC6COC(=O)C6)cc5)O[C@@]4(C(=O)CO)[C@@]3(C)C[C@H](O)[C@@]12Cl (stereo partly drawn) [Compound 27, (6aS,6bR,7S,8aS,8bS,11aR,12aS,12bS)-6b-Chloro-7-hydroxy-8b-(2-hydroxyacetyl)-6a,8a-dimethyl-10-(4-(((5-oxotetrahydrofuran-3-yl)amino)methyl)phenyl)-1,2,6a,6b,7,8,8a,8b,11a,12,12a,12b-dodecahydro-4H-naphtho[2',1':4,5]indeno[1,2-d][1,3]dioxol-4-one] | 1.82 nM |
| C[C@]12C=CC(=O)C=C1[C@@H](F)C[C@H]1[C@@H]3C[C@H]4OC(c5ccc(NCC6CCOC6=O)cc5)O[C@@]4(C(=O)CO)[C@@]3(C)C[C@H](O)[C@@]12F (stereo partly drawn) [Compound 15, (2S,6aS,6bR,7S,8aS,8bS,11aR,12aS,12bS)-2,6b-Difluoro-7-hydroxy-8b-(2-hydroxyacetyl)-6a,8a-dimethyl-10-(4-(((2-oxotetrahydrofuran-3-yl)methyl)amino)phenyl)-1,2,6a,6b,7,8,8a,8b,11a,12,12 a,12b-dodecahydro-4H-naphtho[2',1':4,5]indeno[1,2-d][1,3]dioxol-4-one] | 6.12 nM |
| C[C@]12C=CC(=O)C=C1CC[C@H]1[C@@H]3C[C@H]4OC(c5ccc(CSC6COC(=O)C6)cc5)O[C@@]4(C(=O)CCl)[C@@]3(C)C[C@H](O)[C@@]12Cl (stereo partly drawn) [Compound 39, (6aS,6bR,7S,8aS,8bS,11aR,12aS,12bS)-6b-Chloro-8b-(2-chloroacetyl)-7-hydroxy-6a,8a-dimethyl-10-(4-(((5-oxotetrahydrofuran-3-yl)thio)methyl)phenyl)-l,2,6a,6b,7,8,8a,8b,11a,12,12a,12b-dode cahydro-4H-naphtho[2',1':4,5]indeno[1,2-d][1,3]dioxol-4-one] | 3.31 nM |
| C[C@]12C=CC(=O)C=C1CC[C@H]1[C@@H]3C[C@H]4OC(c5ccc(COC6COC(=O)C6)cc5)O[C@@]4(C(=O)CO)[C@@]3(C)C[C@H](O)[C@@]12F (stereo partly drawn) [Compound 19, (6aS,6bR,7S,8aS,8bS,11aR,12aS,12bS)-6b-Fluoro-7-hydroxy-8b-(2-hydroxyacetyl)-6a,8a-dimethyl-10-(4-(((5-oxotetrahydrofuran-3-yl)oxy)methyl)phenyl)-1,2,6a,6b,7,8,8a,8b,11a,12,12a,12b-do decahydro-4H-naphtho[2',1':4,5]indeno[1,2-d][1,3]dioxol-4-one] | 0.91 nM |
| C[C@]12C=CC(=O)C=C1CC[C@@H]1[C@@H]2[C@@H](O)C[C@@]2(C)[C@H]1C[C@H]1OC(c3ccc(COC4COC(=O)C4)cc3)O[C@]12C(=O)CO (stereo partly drawn) [Compound 31, (6aR,6bS, 7S,8aS,8bS,11aR,12aS,12bS)-7-Hydroxy-8b-(2-hydroxyacetyl)-6a,8a-dimethyl-10-(4-(( (5-oxotetrahydrofuran-3-yl)oxy)methyl)phenyl)-1,2,6a,6b,7,8,8a,8b,11a,12,12a,12b-dodecahydro-4H-naphtho[2',1':4,5]indeno[1,2-d][1,3]dioxol-4-one] | 8.13 nM |
| C[C@]12C=CC(=O)C=C1[C@@H](F)C[C@H]1[C@@H]3C[C@H]4OC(c5ccc(COC6COC(=O)C6)cc5)O[C@@]4(C(=O)CO)[C@@]3(C)C[C@H](O)[C@@]12F (stereo partly drawn) [Compound 10, (2S,6aS,6bR,7S,8aS,8bS,11aR,12aS,12bS)-2,6b-Difluoro-7-hydroxy-8b-(2-hydroxyacetyl)-6a,8a-dimethyl-10-(4-(((5-oxotetrahydrofuran-3-yl)oxy)methyl)phenyl)-1,2,6a,6b,7,8,8a,8b,11a,12,12a,1 2b-dodecahydro-4H-naphtho[2',1':4,5]indeno[1,2-d][1,3]dioxol-4-one] | 2.65 nM |
| C[C@]12C=CC(=O)C=C1[C@@H](F)C[C@H]1[C@@H]3C[C@H]4OC(c5ccc(CS(=O)(=O)C6CCOC6=O)cc5)O[C@@]4(C(=O)CO)[C@@]3(C)C[C@H](O)[C@@]12F (stereo partly drawn) [Compound 58, (2S,6aS,6bR,7S,8aS,8bS,11aR,12aS,12bS)-2,6b-Difluoro-7-hydroxy-8b-(2-hydroxyacetyl)-6a,8a-dimethyl-10-(4-(((2-oxotetrahydrofuran-3-yl)sulfonyl)methyl)phenyl)-1,2,6a,6b,7,8,8a,8b,11a,12, 12a,12b-dodecahydro-4H-naphtho[2',1':4,5]indeno[1,2-d][1,3]dioxol-4-one] | 3.67 nM |
| C[C@]12C=CC(=O)C=C1CC[C@H]1[C@@H]3C[C@H]4OC(c5ccc(C[S+]([O-])C6CCOC6=O)cc5)O[C@@]4(C(=O)CO)[C@@]3(C)C[C@H](O)[C@@]12Cl (stereo partly drawn) [Compound 57, (6aS,6bR,7S,8aS,8bS,11aR,12aS,12bS)-6b-Chloro-7-hydroxy-8b-(2-hydroxyacetyl)-6a,8a-dimethyl-10-(4-(((2-oxotetrahydrofuran-3-yl)sulfinyl)methyl)phenyl)-1,2,6a,6b,7,8,8a,8b,11a,12,12a,12b-dodecahydro-4H-naphtho[2',1':4,5]indeno[1,2-d][1,3]dioxol-4-one] | 0.86 nM |

Reference: patent publication EP4635969A1, “NOVEL GLUCOCORTICOID, METHOD FOR PREPARING SAME, AND USE THEREOF” (Tianjin Pharmaceutical Biotechnology Co., Ltd., priority 2022, dated 2024)
